For series [1], the system named is BxPc3, MIA PaCa-2 and AsPc-1 pancreatic cells. Nature of the series: In vitro cytotoxicity by MTS across pancreatic cell lines. The note with it: FIG. 5.
Protocol: (§1) In vitro cytotoxicity assessment. All cell lines were cultured in monolayers in sterile, vented culture flasks (Corning). Cells were passaged, collected, and then counted with 0.4% Trypan Blue (Thermo Fisher Scientific). Cells were then formulated in their respective media and plated in 96-well plates at 5,000 cells per well in 100 μL. After allowing cells to incubate at 37° C. for 12 h, drugs were then added to the wells. Each drug was formulated at the highest concentration in the cell media and then serially diluted. A PTX equivalent concentration between 10-4 and 10-12 M of each construct was plated in quadruplicate and allowed to incubate for 72 h. 20 μL of CellTiter 96® AQueoous One solution (Promega) was then added to each well. After 1.5 h, the absorbance of each plate was read at 490 nm and normalized to untreated cells to determine the relative cell survival. The half effective concentration (EC50) was calculated as the inflection between the curve's maxima and minima.
For series [2], the system named is BxPc3 cells. Nature of the series: MTS cell proliferation assay (in vitro cytotoxicity).
Protocol: as §1
Series [3] deals with BxPc3 cells. Nature of the series: Cell cycle distribution by propidium iodide flow cytometry (G2/M arrest). In kind it is cell-based, human. The following applies: 1 nM of equivalent paclitaxel. The method, then: As radiation sensitization is driven by late G2/M arrest, the effects of paclitaxel on cell cycle progression were examined. BxPc3 cells were treated in vitro with 1 nM of equivalent paclitaxel, stained with propidium iodide to measure relative DNA quantities, and analyzed by flow cytometry to assess the cell cycle distribution over time.

Experimental findings from patent US20220008567A1, “LIQUIDLY INJECTABLE, SELF-STABILIZING BIOPOLYMERS FOR THE DELIVERY OF RADIONUCLIDE” (priority 2018, published 2022) are described below.

Structures are written as SMILES.

Turning to `CC(=O)O[C@H]1C(=O)[C@@]2(C)[C@H]([C@H](OC(=O)c3ccccc3)[C@]3(O)C[C@H](OC(=O)[C@H](O)[C@@H](NC(=O)c4ccccc4)c4ccccc4)C(C)=C1C3(C)C)[C@]1(OC(C)=O)CO[C@@H]1C[C@@H]2O` [PTX, paclitaxel], the “cytotoxicity in each cell line” value in series [1] is given as “nanomolar cytotoxicity”. The in vitro cytotoxicity entry in series [2] (FIG. 4A) is “nanomolar”. In addition, the EC50 in series [2] (Homo sapiens, BXPC-3, 72 h, read-out: relative half-inhibitory concentration (EC50)) turned out to be 3.7 nM. In series [3], the “peak proportion of cell population in G2/M phase” value came out at 37.9% and the “time to maximum proportion of G2/M cells” value amounted to 12 h.
